Test results taken from patent US7915316B2, “Sulfonamides” (Allergan, Inc, priority 2005, dated 2011).

Key:
EP4 [1] = biological target: T1, EP4 (Homo sapiens, UniProt P35408); experiment: EP4 receptor binding (bhEP4 / EP4 Binding); settings: for EC50 / EP4 Binding % Inh: Table 2; for IC50: Table 1; on EP4 Binding % Inh: test concentration or dose not given here
EP4 [2] = biological target: T1, EP4; experiment: Ca2+ signal, EP4; format: cell-based; settings: relative to PGE2
EP2 [3] = biological target: T2, EP2 (Homo sapiens, UniProt P43116); experiment: Ca2+ signal, EP2; format: cell-based; settings: for Emax: relative to PGE2
T2 sequence (P43116 whole entry): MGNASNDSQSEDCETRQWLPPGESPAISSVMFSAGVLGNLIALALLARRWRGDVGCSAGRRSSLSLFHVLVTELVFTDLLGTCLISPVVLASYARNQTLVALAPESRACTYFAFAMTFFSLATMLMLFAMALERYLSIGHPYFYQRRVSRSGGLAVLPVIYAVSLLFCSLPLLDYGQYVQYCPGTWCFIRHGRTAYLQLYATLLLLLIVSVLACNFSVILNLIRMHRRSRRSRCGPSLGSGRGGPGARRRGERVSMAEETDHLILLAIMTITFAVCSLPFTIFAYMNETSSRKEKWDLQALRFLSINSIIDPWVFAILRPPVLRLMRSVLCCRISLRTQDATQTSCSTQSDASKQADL

EP2 [4] = biological target: T2, EP2; experiment: EP2 receptor binding (bhEP2 / EP2 Binding); settings: for EC50 / EP2 Binding % Inh: Table 2; for IC50: Table 1; on EP2 Binding % Inh: test concentration or dose not given here
EP2 [5] = biological target: T2, EP2; experiment: cAMP assay; format: cell-based
EP2 [6] = biological target: T2, EP2; experiment: functional activity at hEP2 (fhEP2); format: cell-based; settings: Table 1
EP2 and EP4 receptors = experiment: in-vitro assay for binding to and activity at various prostaglandin receptors; settings: as compared to the FP, EP1, TP, IP and DP receptors
IP = IP (Homo sapiens, UniProt P43119); experiment: activity at IP receptor; settings: Table 2
Chain of IP (P43119 whole entry): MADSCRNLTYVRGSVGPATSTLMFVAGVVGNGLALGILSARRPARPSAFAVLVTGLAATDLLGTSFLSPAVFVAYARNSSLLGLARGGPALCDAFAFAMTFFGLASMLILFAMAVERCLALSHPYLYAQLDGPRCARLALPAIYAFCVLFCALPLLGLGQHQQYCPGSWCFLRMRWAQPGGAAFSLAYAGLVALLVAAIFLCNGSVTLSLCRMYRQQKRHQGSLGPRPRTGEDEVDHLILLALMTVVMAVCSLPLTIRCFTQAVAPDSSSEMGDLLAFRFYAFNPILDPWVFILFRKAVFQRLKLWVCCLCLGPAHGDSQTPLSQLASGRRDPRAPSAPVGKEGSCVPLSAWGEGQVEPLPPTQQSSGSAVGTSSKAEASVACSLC

TP = biological target: T3, TP (Homo sapiens, UniProt P21731); experiment: activity at TP receptor; settings: Table 2
T3 sequence (P21731 1-343): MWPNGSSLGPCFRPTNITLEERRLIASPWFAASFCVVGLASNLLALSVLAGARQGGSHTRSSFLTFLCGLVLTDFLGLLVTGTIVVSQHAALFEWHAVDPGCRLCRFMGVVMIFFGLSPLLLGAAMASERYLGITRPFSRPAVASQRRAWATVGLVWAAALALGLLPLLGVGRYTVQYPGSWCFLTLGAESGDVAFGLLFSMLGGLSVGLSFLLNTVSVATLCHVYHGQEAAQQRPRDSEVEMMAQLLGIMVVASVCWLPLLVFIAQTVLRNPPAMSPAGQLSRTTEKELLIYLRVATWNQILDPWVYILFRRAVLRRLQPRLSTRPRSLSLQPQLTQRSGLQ

T1 sequence (P35408 whole entry): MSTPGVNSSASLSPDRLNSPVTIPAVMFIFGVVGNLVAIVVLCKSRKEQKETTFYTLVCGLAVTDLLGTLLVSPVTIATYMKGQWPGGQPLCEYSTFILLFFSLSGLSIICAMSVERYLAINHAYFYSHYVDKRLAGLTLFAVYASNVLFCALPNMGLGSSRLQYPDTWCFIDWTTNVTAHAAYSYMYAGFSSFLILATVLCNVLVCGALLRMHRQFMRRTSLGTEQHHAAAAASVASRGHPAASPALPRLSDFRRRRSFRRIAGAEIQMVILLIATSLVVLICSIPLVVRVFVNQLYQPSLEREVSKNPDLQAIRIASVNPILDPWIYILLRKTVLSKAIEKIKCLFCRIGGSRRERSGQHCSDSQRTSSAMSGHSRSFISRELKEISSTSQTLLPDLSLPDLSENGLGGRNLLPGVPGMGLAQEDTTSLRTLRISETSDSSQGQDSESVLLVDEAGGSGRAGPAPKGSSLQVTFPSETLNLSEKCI

EC50 (EP4 [1]) [nM] | EP4 Binding % Inh (EP4 [1]) [%] | Emax (EP4 [2]) [%] | EC50 (EP2 [3]) [nM] | Emax (EP2 [3]) [%] | EC50 (EP2 [4]) [nM] | EP2 Binding % Inh (EP2 [4]) [%] | EC50 (EP2 [5]; Table 2, read-out: cAMP EC50) [nM] | EC50 (EP2 [6]) [nM] | IC50 (EP2 [4]) [nM] | EC50 (EP2 [5]; Table 1, read-out: cAMP) [nM] | selectivity at EP2 and EP4 receptors (EP2 and EP4 receptors) | IC50 (EP4 [1]) [nM] | IP (IP) | TP (TP) | SMILES
1320 | 89 | 2 | 11 | 92 | 208 | 97 | 3.5 |  |  |  |  |  |  |  | CCCCCC(O)c1ccc(CN(Cc2ccc(OCC(=O)O)cc2)S(=O)(=O)c2cccnc2)cc1 (centres unmarked)
 |  |  | 620 |  | 5680 |  | 24 |  |  |  |  |  |  |  | CCCCCC(O)c1ccc(CN(CC#CCCCC(=O)O)S(C)(=O)=O)cc1 (centres unmarked) [7-[[4-(1-hydroxyhexyl)benzyl]methanesulfonylamino]hept-5-yne-oic acid]
1380 | 71 | 1 | 591 | 83 | 829 | 73 | 126 |  |  |  |  |  |  |  | CC(C)(C)c1ccc(CN(CCCCCCC(=O)O)S(=O)(=O)c2cccnc2)cc1 [7-[[4-(1-t-butyl)benzyl]pyridinesulfonylamino]heptanoic acid]
 |  |  |  |  |  |  |  | 406 | 1690 | 16 | selective at the EP2 and EP4 receptors |  |  |  | CCCCCC(O)c1ccc(CN(CCCCCCC(=O)O)S(C)(=O)=O)cc1 (centres unmarked) [Compound 12, 7-[[4-(1-Hydroxyhexyl)benzyl]methanesulfonylamino]heptanoic acid]
 |  |  |  |  |  |  |  | 600 | 1490 | > 10000 |  | 90 |  |  | CCCCCC(O)c1ccc(CN(CCCCCCC(=O)O)S(=O)(=O)c2cccs2)cc1 (centres unmarked) [7-[[4-(1-hydroxyhexyl)benzyl]thiophenesulfonylamino]heptanoic acid]
1340 | 59 | 0 | 20 | 87 | 100 | 93 | 18 |  |  |  |  |  |  |  | CC(C)(C)c1ccc(CN(Cc2ccc(OCC(=O)O)cc2)S(=O)(=O)c2cccnc2)cc1 [4-[[4-(1-t-butyl)benzyl]pyridinesulfonylaminomethyl]phenoxyacetic acid]
 |  |  |  |  |  |  |  | 634 |  |  |  | 150 |  |  | CCCCCC(O)c1ccc(CN(CCCCCCC(=O)O)S(=O)(=O)c2ccccc2)cc1 (centres unmarked) [7-[[4-(1-hydroxyhexyl)benzyl]benzenesulfonylamino]heptanoic acid]
 |  |  |  |  |  |  |  | 275 | 4730 | 138 |  | 546 |  |  | CCCCCC(O)c1ccc(CN(CCCCCCC(=O)O)S(=O)(=O)c2cccnc2)cc1 (centres unmarked)
 | 41 | 2 | 2310 | 89 |  | 60 | 156 |  |  |  |  |  | IP = 2561 |  | CC(C)(C)c1ccc(CN(CCCCCCC(=O)O)S(C)(=O)=O)cc1 [7-[[4-(1-t-butyl)benzyl]methanesulfonylamino]heptanoic acid]
4170 | 55 | 5 | 1250 | 90 | 1130 | 87 | 84 |  |  |  |  |  | IP = 868 |  | CS(=O)(=O)N(CC#CCCCC(=O)O)CCOc1cc(Cl)cc(Cl)c1
706 | 94 | 9 | 1130 | 71 | 493 | 76 | 1970 |  |  |  |  |  |  |  | CC(C)(C)c1ccc(CN(CCCCCCC(=O)O)S(=O)(=O)c2cccs2)cc1 [7-[[4-(1-t-butyl)benzyl]thiophenelsulfonylamino]heptanoic acid]
373 | 99 | 11 | 964 | 78 | 1540 | 82 | 965 |  |  |  |  |  |  |  | CC(C)(C)c1ccc(CN(CCCCCCC(=O)O)S(=O)(=O)c2ccccc2)cc1 [7-[[4-(1-t-butyl)benzyl]benzenesulfonylamino]heptanoic acid]
2920 | 64 | 10 | 2960 | 83 | 1900 | 81 | 214 |  |  |  |  |  | 403 | 7008 | CS(=O)(=O)N(C/C=C\CCCC(=O)O)CCOc1cc(Cl)cc(Cl)c1
